These results are taken from patent publication US11992497B2 (priority 2021, dated 2024).

SMILES strings stand for the structures. “Also recorded” adds a separate entry of the source. Where two headings read alike, the source gives them in different places.

Data set [1] in a line: PK and Tmax of CBD and Compound 3 after IP administration. Format: in vivo. The settings on record: male C57BL/6 mice; for Cmax / AUC(0-t): mouse, in vivo; for AUC(0-t): read-out: AUC(0-t) (obs area). The text has this: The purpose of this study was to determine the pharmacokinetics and time of maximum plasma (Tmax) of the test articles (TA) CBD and Compound 3 following intraperitoneal (IP) administration to male C57BL/6 mice. This method of TA delivery, dose and mouse strain was to be used in a subsequent Pentylenetetrazol (PTZ) induced seizure model for the evaluation of the TA's for anti-epileptic activity.

Data set [2] deals with PTZ-induced seizure. The data set is described as follows: PTZ-induced epilepsy mouse model. The data set is classed as in vivo. The settings on record: for Latency to Clonic Seizure Event compared to PTZ alone / Latency to First Seizure Event compared to PTZ alone / Latency to Tonic Seizure Event compared to PTZ alone / Percent of animals reaching Tonic-clonic Stage 6 compared to PTZ alone / Racine scores over 5 minute intervals for 30 minutes compared to PTZ alone / Survival Effects: mortality rate compared to the vehicle/PTZ group: PTZ 80 mg/kg, CBD 100 mg/kg 60 minutes prior, Compound 3 100 mg/kg 30 minutes prior to PTZ. An excerpt:
Mouse models using GABAa receptor antagonist Pentylenetetrazol (PTZ) are well defined and used as a standard for the identification of potential anticonvulsants to treat generalized clonic seizures (Loscher et al., 1991 Epilepsy Res 8:171-189). The purpose of this study was to evaluate and compare CBD to test article Compound 3, on their therapeutic effects in a mouse model of PTZ-induced seizure. To match up test article plasma concentration time max (Tmax) with the PTZ induced seizures; test articles were administered at 60 minutes and 30 minutes prior to PTZ administration respectively. Vehicle used for treatment groups was 10% EtOH/10% Tween 80/80% Saline.
Mice were acclimated to the procedure room for at least 30 minutes.
Pentylenetetrazole (PTZ; Sigma Aldrich) was formulated in water to a concentration of 16 mg/mL. Injections of PTZ were made at a volume of 5 mL/kg to produce a final dose of 80 mg/kg. […] A 30- • minute maximum latency to seizure was imposed. • Clinical behavior was scored using the following adapted Racine scale: • Score 0, no seizures observed • Score 1, Behavioral arrest (freezing, fixed gaze, staring), vibrissae twitching, • mouth or facial clonus • Score 2, Pop or jump, straub tail, foot splay, head nodding • Score 3, Forelimb clonus, extended forelimbs, multiple pops or jerks • Score 4, Rearing and bilateral forelimb clonus, Running and running/bouncing • Score 5, All limb clonus, rearing and falling (stay fallen on rear side) • Score 6, Tonic hindlimb extensions, cardiac arrest
Behavior was scored by an observer blind to treatment. The highest score reached during every 5 minute period during the 30 minutes after PTZ was administered was recorded. Additionally, the percent tonic-clonic (number of animals progressing to the highest seizure score), and percent mortality was also calculated.

In data set [3] the test system is HCT116. The data set is described as follows: GI50 by MTS assay. The data set is classed as cell-based. The conditions noted are these: MTS assay, HCT116, 48 hours. On the procedure:
For MTS assay, the compounds have been tested at 8 concentrations on 4 colon cancer cell lines for 48 hours. The compounds, concentrations and colon cancer cell line panel tested are the following: • CBG: 0 μM, 1.25 μM, 2.5 μM, 5 μM, 10 μM, 20 μM, 40 μM, and 80 μM. • Compound 1: 0 μM, 1.25 μM, 2.5 μM, 5 μM, 10 μM, 20 μM, 40 μM, and 80 μM. • Compound 2: 0 μM, 1.25 μM, 2.5 μM, 5 μM, 10 μM, 20 μM, 40 μM, and 80 μM. • Colon cancer cell line panel: SW620, HCT15, HT29, HCTl16
Four colon cancer cell lines of SW620, HCT15, HT29, and HCT116 were included in the colon cancer cell line panel.
CBG, compound 1 and compound 2 were dissolved in DMSO at a concentration of 10 mM and stored at −20° C.
Evaluation of DM compounds treatment-induced growth inhibition was performed to determine the GI50 of four colon cancer cell lines with MTS assay or clonogenic assay. Each experiment was repeated in triplicate. In GraphPad Prism, data were log-transformed and fit with a nonlinear curve to calculate the GI50.
MTS assay. cells were plated at 96 well plates at a density of 1,000 cells per well. After 24 hours, cells were treated with DM compounds at increasing concentrations or DMSO vehicle and incubated for 48 hours. 20 μl of MTS reagent (Promega) was then added and incubated for 2 hours. The absorbance was measured with a microplate reader at 490 nm. Each experiment was repeated in triplicate. In GraphPad Prism, data were log-transformed and fit with a nonlinear curve to calculate the GI50.
(In general: Tetrazolium assays rely on reduction of a dye to a coloured formazan, in cell work by metabolically active cells.)

The subject of data set [4] is lipopolysaccharide (LPS)-induced inflammation. The data set is described as follows: Rat LPS model, serum pro-inflammatory cytokines. The settings on record: oral, 4 days; 2 h after LPS. The data set is classed as in vivo, Sprague Dawley rats. As to the method: This assay was employed to determine the efficacies of CBG, compound 1, and compound 2 against lipopolysaccharide (LPS)-induced inflammation in Sprague Dawley rats.
Eight- to 10-week-old male rats were treated with CBG, Compound 1, and Compound 2, or a positive control (cyclosporin A) for four days prior to treatment with LPS. Twenty-eight (28) Sprague Dawley male rats, 8-10 weeks old, were used for this study. Animals were randomized by weight into one of 7 treatment groups as shown in Table 10 below and treated for 4 days with either vehicle control (Groups 1 and 2), Cyclosporin A (Neoral) (Group 3), CBG at 30 mg/kg (Group 4), Compound 1 at 31.5 mg/kg (Group 5), Compound 2 at 32.7 mg/kg (Group 6) or CBG at 30 mg/kg (intraperitoneal/IP; Group 7). Groups 1-6 were dosed for 4 days by oral gavage; group 7 was dosed for 4 days by IP injection. After the 4th injection, Groups 2-7 received a single IP injection of LPS at 5 mg/kg to induce inflammation. Body weight was recorded every other day starting on the day of or day prior to the first day of treatment. A terminal body weight was recorded. General health and clinical signs were recorded once daily. Blood was collected to isolate immune cells at 2 hours after the LPS injection. […]
Serum samples (N=82) were processed and shipped to Inotiv Boulder for analysis. […] The samples were analyzed for cytokine levels using the RECYTMAG-65K Luminex™ kit. […]

Data set [5] deals with T1, UGT1A4 (Homo sapiens, UniProt P22310).
T1 construct: purchased BD Biosciences
T1 sequence (P22310 29-534): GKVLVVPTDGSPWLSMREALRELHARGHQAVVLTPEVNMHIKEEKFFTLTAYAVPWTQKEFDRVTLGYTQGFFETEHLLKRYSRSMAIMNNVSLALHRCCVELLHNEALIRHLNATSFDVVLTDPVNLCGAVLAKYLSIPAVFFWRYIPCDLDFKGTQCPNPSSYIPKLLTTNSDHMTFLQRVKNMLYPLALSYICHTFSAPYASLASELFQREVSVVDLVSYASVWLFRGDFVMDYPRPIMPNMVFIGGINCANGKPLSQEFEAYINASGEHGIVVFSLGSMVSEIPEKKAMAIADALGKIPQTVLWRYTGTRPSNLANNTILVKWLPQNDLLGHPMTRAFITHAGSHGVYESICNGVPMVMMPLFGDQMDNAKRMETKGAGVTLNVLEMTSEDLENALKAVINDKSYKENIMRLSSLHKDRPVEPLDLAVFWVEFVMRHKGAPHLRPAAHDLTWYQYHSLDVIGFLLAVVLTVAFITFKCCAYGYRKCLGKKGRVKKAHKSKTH
The data set is described as follows: UGT reaction phenotyping, recombinant Supersomes. Format: in vitro ADME. An excerpt:
Experimental Summary: UGT Reaction Phenotyping (7 Isoforms).

For the compound `C=C(C)[C@@H]1CCC(C)=C[C@H]1c1c(O)cc(CCCCC)cc1O` [CBD, cannabidiol, reference compound], in data set [1] (IP), the “Tmax (in words)” value is listed as “two separate Tmax peaks”. For the same compound, in data set [1] (plasma, 100 mg/kg IP), the concentration peaked (Cmax) at 2730 ng/mL and the AUC(0-t) was 6830 ng·h/mL. For the same compound, in data set [2], the “Latency to Clonic Seizure Event compared to PTZ alone” value is “did not yield a significantly different latency”, the “Latency to First Seizure Event compared to PTZ alone” value is “did not result in a difference in latency to first seizure”, the “Latency to Tonic Seizure Event compared to PTZ alone” value is reported as “did not yield a significantly different latency” and the “Percent of animals reaching Tonic-clonic Stage 6 compared to PTZ alone” value was “did not yield a significantly difference in proportion; also recorded: did not yield a significant difference in proportion”. Besides, in data set [2], the “Racine scores over 5 minute intervals for 30 minutes compared to PTZ alone” value was “did not yield a significant change in clinical score” and the “Survival Effects: mortality rate compared to the vehicle/PTZ group” value is listed as “did not yield a significantly reduced mortality rate”.

Take `CCCCCc1cc(O)c(C/C=C(\C)CCC=C(C)C)c(OC)c1` [Cmpd1]: the GI50 amounted to 10.3 µM in data set [3] (average of N1-N3, read-out: GI50 AVG); 10.5 µM in data set [3] (replicate N1, read-out: GI50 N1); 9.96 µM in data set [3] (replicate N2, read-out: GI50 N2); 10.5 µM in data set [3] (replicate N3, read-out: GI50 N3).

For `C=C(C)[C@@H]1CCC(C)=C[C@H]1c1c(O)cc(CCCCC)cc1OC` [Compound 3, (1′R,2′R)-6-methoxy-5′-methyl-4-pentyl-2′-(prop-1-en-2-yl)-1′,2′,3′,4′-tetrahydro-[1,1′-biphenyl]-2-ol], in data set [1] (IP), the “Cmax relative to CBD” value came out at 8 fold and the “plasma PK Area Under the Curve (AUC) relative to CBD” value is “over 4 fold”. In data set [1] (plasma, 100 mg/kg IP), the peak level (Cmax) was 21800 ng/mL, the AUC(0-t) came out at 30200 ng·h/mL and the TMax turned out to be 0.5 h. Moreover, in data set [4], the “reduction of IL-1B and IFNy relative to CBG (in words)” value is “equal to or better than CBG”. For the same compound, in data set [2], the “Latency to Clonic Seizure Event compared to PTZ alone” value is on record as “did not yield a significantly different latency; also recorded: strong trend toward longer latency”; the “Latency to First Seizure Event compared to PTZ alone” value is “trended towards a longer latency than PTZ alone, although the difference was not significant”; the “Latency to Tonic Seizure Event compared to PTZ alone” value was “significantly longer latency”; the “Percent of animals reaching Tonic-clonic Stage 6 compared to PTZ alone” value was “significantly lower proportion”. In data set [2], the “Racine scores over 5 minute intervals for 30 minutes compared to PTZ alone” value is recorded as “significant improvement in Racine scores” and the “Survival Effects: mortality rate compared to the vehicle/PTZ group” value is “significantly reduced mortality rate”. Also, the “overall anti-epileptic activity (in words)” value in data set [2] (PTZ seizure model) is listed as “clear anti-epileptic therapeutic activity”.

Turning to `C[N+]1([C@@H]2O[C@H](C(=O)[O-])[C@@H](O)[C@H](O)[C@H]2O)CCN(CCCN2c3ccccc3Sc3ccc(C(F)(F)F)cc32)CC1` [Trifluoperazine Glucuronide], the “average peak area ratio at 60 min/average peak area ratio at 0 min (printed in the half-life column)” value in data set [5] (Test Conc. 1 μM) is reported as “*6.38”.

Take `CN1CCN(CCCN2c3ccccc3Sc3ccc(C(F)(F)F)cc32)CC1` [Trifluoperazine, trifluoperazine]: the microsomal CLint at 1 µM in data set [5] (human, recombinant UGT1A4 Supersomes, pH 7.4, Test Conc. 1 μM, read-out: Recombinant UGT CLINT Clearance) worked out at 0.7 µL/min/mg. In addition, the half-life at 1 µM in data set [5] (human, recombinant UGT1A4 Supersomes, pH 7.4, Test Conc. 1 μM, read-out: Recombinant UGT Half Life T1/2) was 16.4 h.

Usually Cmax stands for the peak of the concentration-time curve. Broadly, the AUC(0-t) is the area under the concentration-time curve up to a stated or last time point. By GI50 is commonly meant the concentration giving 50% growth inhibition.
